± gives the expanded uncertainty stated by the source.
Assay: xn = mol fraction of the nth substance listed
Conditions: 100 kPa, Liquid; for speed of sound: Frequency=3 MHz, Linear variable-path acoustic interferometer; for mass density: Pycnometric method

C=C(C)C(=O)OCC [ethyl 2-methylpropenoate] + CC#N
Conditions	mass density [kg/m3]	speed of sound [m/s]
293.15 K, x2 = 0	912.3 ± 1	1196.8 ± 1.6
293.15 K, x2 = 0.0556	909.47 ± 1	1200.9 ± 1.6
293.15 K, x2 = 0.1112	906.38 ± 1	1205 ± 1.6
293.15 K, x2 = 0.1631	903.24 ± 1	1208.8 ± 1.6
293.15 K, x2 = 0.2147	899.86 ± 1	1212.6 ± 1.6
293.15 K, x2 = 0.2795	895.21 ± 1	1217.4 ± 1.6
293.15 K, x2 = 0.3446	890.04 ± 1	1222.2 ± 1.6
293.15 K, x2 = 0.4132	883.98 ± 1	1227.4 ± 1.6
293.15 K, x2 = 0.4819	877.18 ± 1	1232.8 ± 1.6
293.15 K, x2 = 0.5597	868.44 ± 1	1239.5 ± 1.6
293.15 K, x2 = 0.6375	858.38 ± 1	1246.9 ± 1.6
293.15 K, x2 = 0.7251	845.11 ± 1	1256.4 ± 1.6
293.15 K, x2 = 0.8113	829.5 ± 1	1267.7 ± 1.6
293.15 K, x2 = 0.9014	809.62 ± 1	1282.6 ± 1.6
293.15 K, x2 = 0.9542	795.78 ± 1	1293.4 ± 1.6
298.15 K, x2 = 0	907.18 ± 1	1176.9 ± 1.6
298.15 K, x2 = 0.0556	904.36 ± 1	1181 ± 1.6
298.15 K, x2 = 0.1112	901.28 ± 1	1185.1 ± 1.6
298.15 K, x2 = 0.1631	898.14 ± 1	1188.8 ± 1.6
298.15 K, x2 = 0.2147	894.76 ± 1	1192.5 ± 1.6
298.15 K, x2 = 0.2795	890.11 ± 1	1197.2 ± 1.6
298.15 K, x2 = 0.3446	884.94 ± 1	1201.9 ± 1.6
298.15 K, x2 = 0.4132	878.87 ± 1	1207 ± 1.6
298.15 K, x2 = 0.4819	872.05 ± 1	1212.3 ± 1.6
298.15 K, x2 = 0.5597	863.29 ± 1	1218.8 ± 1.6
298.15 K, x2 = 0.6375	853.22 ± 1	1226 ± 1.6
298.15 K, x2 = 0.7251	839.92 ± 1	1235.4 ± 1.6
298.15 K, x2 = 0.8113	824.27 ± 1	1246.5 ± 1.6
298.15 K, x2 = 0.9014	804.36 ± 1	1261.1 ± 1.6
298.15 K, x2 = 0.9542	790.5 ± 1	1271.8 ± 1.6
303.15 K, x2 = 0	902.06 ± 1	1157.6 ± 1.6
303.15 K, x2 = 0.0556	899.25 ± 1	1161.8 ± 1.6
303.15 K, x2 = 0.1112	896.18 ± 1	1165.9 ± 1.6
303.15 K, x2 = 0.1631	893.05 ± 1	1169.6 ± 1.6
303.15 K, x2 = 0.2147	889.66 ± 1	1173.3 ± 1.6
303.15 K, x2 = 0.2795	885.01 ± 1	1177.9 ± 1.6
303.15 K, x2 = 0.3446	879.82 ± 1	1182.6 ± 1.6
303.15 K, x2 = 0.4132	873.74 ± 1	1187.7 ± 1.6
303.15 K, x2 = 0.4819	866.92 ± 1	1193 ± 1.6
303.15 K, x2 = 0.5597	858.14 ± 1	1199.5 ± 1.6
303.15 K, x2 = 0.6375	848.05 ± 1	1206.7 ± 1.6
303.15 K, x2 = 0.7251	834.72 ± 1	1216.2 ± 1.6
303.15 K, x2 = 0.8113	819.05 ± 1	1227.4 ± 1.6
303.15 K, x2 = 0.9014	799.1 ± 1	1242.2 ± 1.6
303.15 K, x2 = 0.9542	785.22 ± 1	1252.9 ± 1.6
308.15 K, x2 = 0	896.94 ± 1	1139.4 ± 1.6
308.15 K, x2 = 0.0556	894.14 ± 1	1143.6 ± 1.6
308.15 K, x2 = 0.1112	891.07 ± 1	1147.7 ± 1.6
308.15 K, x2 = 0.1631	887.95 ± 1	1151.4 ± 1.6
308.15 K, x2 = 0.2147	884.57 ± 1	1155 ± 1.6
308.15 K, x2 = 0.2795	879.91 ± 1	1159.6 ± 1.6
308.15 K, x2 = 0.3446	874.71 ± 1	1164.3 ± 1.6
308.15 K, x2 = 0.4132	868.61 ± 1	1169.3 ± 1.6
308.15 K, x2 = 0.4819	861.78 ± 1	1174.6 ± 1.6
308.15 K, x2 = 0.5597	852.99 ± 1	1181 ± 1.6
308.15 K, x2 = 0.6375	842.87 ± 1	1188.1 ± 1.6
308.15 K, x2 = 0.7251	829.52 ± 1	1197.5 ± 1.6
308.15 K, x2 = 0.8113	813.82 ± 1	1208.6 ± 1.6
308.15 K, x2 = 0.9014	793.83 ± 1	1223.4 ± 1.6
308.15 K, x2 = 0.9542	779.93 ± 1	1234.1 ± 1.6
313.15 K, x2 = 0	891.83 ± 1	1121.5 ± 1.6
313.15 K, x2 = 0.0556	889.04 ± 1	1125.6 ± 1.6
313.15 K, x2 = 0.1112	885.98 ± 1	1129.8 ± 1.6
313.15 K, x2 = 0.1631	882.85 ± 1	1133.5 ± 1.6
313.15 K, x2 = 0.2147	879.47 ± 1	1137.1 ± 1.6
313.15 K, x2 = 0.2795	874.81 ± 1	1141.7 ± 1.6
313.15 K, x2 = 0.3446	869.6 ± 1	1146.3 ± 1.6
313.15 K, x2 = 0.4132	863.49 ± 1	1151.3 ± 1.6
313.15 K, x2 = 0.4819	856.64 ± 1	1156.5 ± 1.6
313.15 K, x2 = 0.5597	847.83 ± 1	1162.9 ± 1.6
313.15 K, x2 = 0.6375	837.7 ± 1	1169.9 ± 1.6
313.15 K, x2 = 0.7251	824.32 ± 1	1179.2 ± 1.6
313.15 K, x2 = 0.8113	808.59 ± 1	1190.3 ± 1.6
313.15 K, x2 = 0.9014	788.57 ± 1	1205 ± 1.6
313.15 K, x2 = 0.9542	774.64 ± 1	1215.7 ± 1.6
318.15 K, x2 = 0	886.71 ± 1	1104.6 ± 1.6
318.15 K, x2 = 0.0556	883.94 ± 1	1108.7 ± 1.6
318.15 K, x2 = 0.1112	880.88 ± 1	1112.8 ± 1.6
318.15 K, x2 = 0.1631	877.75 ± 1	1116.5 ± 1.6
318.15 K, x2 = 0.2147	874.37 ± 1	1120.1 ± 1.6
318.15 K, x2 = 0.2795	869.7 ± 1	1124.6 ± 1.6
318.15 K, x2 = 0.3446	864.49 ± 1	1129.2 ± 1.6
318.15 K, x2 = 0.4132	858.37 ± 1	1134.1 ± 1.6
318.15 K, x2 = 0.4819	851.5 ± 1	1139.2 ± 1.6
318.15 K, x2 = 0.5597	842.68 ± 1	1145.4 ± 1.6
318.15 K, x2 = 0.6375	832.52 ± 1	1152.3 ± 1.6
318.15 K, x2 = 0.7251	819.12 ± 1	1161.4 ± 1.6
318.15 K, x2 = 0.8113	803.35 ± 1	1172.3 ± 1.6
318.15 K, x2 = 0.9014	783.3 ± 1	1186.7 ± 1.6
318.15 K, x2 = 0.9542	769.35 ± 1	1197.3 ± 1.6

From the NIST ThermoML archive (doi:10.1016/j.jct.2018.03.013)
